Test results as given in ChEMBL document CHEMBL5303573, “Mapping human microbiome drug metabolism by gut bacteria and their genes” (Nature, 2019).

Legend:
[1] = The drug is tested on Anaerotruncus colihominis strain: DSM17241 for biotransformation. The drug concentrations were measured before and after a 12-h incubation by liquid-chromatography-coupled mass spectrometry (LC–MS); conditions: 2 µM
[2] = The drug is tested on Parabacteroides merdae strain: ATCC43184 for biotransformation. The drug concentrations were measured before and after a 12-h incubation by liquid-chromatography-coupled mass spectrometry (LC–MS); conditions: 2 µM
[3] = The drug is tested on Bacteroides ovatus strain: ATCC8483 for biotransformation. The drug concentrations were measured before and after a 12-h incubation by liquid-chromatography-coupled mass spectrometry (LC–MS); conditions: 2 µM
[4] = The drug is tested on Coprococcus comes strain: ATCC27758 for biotransformation. The drug concentrations were measured before and after a 12-h incubation by liquid-chromatography-coupled mass spectrometry (LC–MS); type: ADME; parameters: dose 2 uM, timepoint 0 vs 12 hours; conditions: 2 µM
[5] = The drug is tested on Bacteroides coprophilus strain: DSM18228 for biotransformation. The drug concentrations were measured before and after a 12-h incubation by liquid-chromatography-coupled mass spectrometry (LC–MS); conditions: 2 µM
[6] = The drug is tested on Collinsella aerofaciens strain: ATCC25986 for biotransformation. The drug concentrations were measured before and after a 12-h incubation by liquid-chromatography-coupled mass spectrometry (LC–MS); conditions: 2 µM
[7] = The drug is tested on Dorea formicigenerans strain: ATCC27755 for biotransformation. The drug concentrations were measured before and after a 12-h incubation by liquid-chromatography-coupled mass spectrometry (LC–MS); conditions: 2 µM
[8] = The drug is tested on Enterococcus faecalis strain: V583 for biotransformation. The drug concentrations were measured before and after a 12-h incubation by liquid-chromatography-coupled mass spectrometry (LC–MS); conditions: 2 µM
[9] = The drug is tested on Bifidobacterium ruminantium strain: fecal isolate for biotransformation. The drug concentrations were measured before and after a 12-h incubation by liquid-chromatography-coupled mass spectrometry (LC–MS); conditions: 2 µM
[10] = The drug is tested on Clostridium asparagiforme strain: DSM15981 for biotransformation. The drug concentrations were measured before and after a 12-h incubation by liquid-chromatography-coupled mass spectrometry (LC–MS); type: ADME; parameters: dose 2 uM, timepoint 0 vs 12 hours; conditions: enterocloster asparagiformis, 2 µM
[11] = The drug is tested on Clostridium sporogenes strain: ATCC15579 for biotransformation. The drug concentrations were measured before and after a 12-h incubation by liquid-chromatography-coupled mass spectrometry (LC–MS); conditions: 2 µM
[12] = limosilactobacillus reuteri cf48-3a, 12 h, 2 µM
Description: The drug is tested on Lactobacillus reuteri CF48-3A strain: BEI HM-102 for biotransformation. The drug concentrations were measured before and after a 12-h incubation by liquid-chromatography-coupled mass spectrometry (LC–MS)

[13] = The drug is tested on Ruminococcus torques strain: ATCC27756 for biotransformation. The drug concentrations were measured before and after a 12-h incubation by liquid-chromatography-coupled mass spectrometry (LC–MS); type: ADME; parameters: dose 2 uM, timepoint 0 vs 12 hours; conditions: 2 µM
[14] = The drug is tested on Bacteroides finegoldii strain: DSM17565 for biotransformation. The drug concentrations were measured before and after a 12-h incubation by liquid-chromatography-coupled mass spectrometry (LC–MS); conditions: 2 µM
[15] = The drug is tested on Bacteroides caccae strain: ATCC43185 for biotransformation. The drug concentrations were measured before and after a 12-h incubation by liquid-chromatography-coupled mass spectrometry (LC–MS); conditions: 2 µM
[16] = The drug is tested on Bacteroides uniformis strain: ATCC8492 for biotransformation. The drug concentrations were measured before and after a 12-h incubation by liquid-chromatography-coupled mass spectrometry (LC–MS); conditions: 2 µM
[17] = The drug is tested on Odoribacter splanchnicus strain: fecal isolate for biotransformation. The drug concentrations were measured before and after a 12-h incubation by liquid-chromatography-coupled mass spectrometry (LC–MS); conditions: 2 µM
[18] = bacteroides thetaiotaomicron, 12 h, 2 µM
Description: The drug is tested on Bacteroides thetaiotaomicron strain: 7330 for biotransformation. The drug concentrations were measured before and after a 12-h incubation by liquid-chromatography-coupled mass spectrometry (LC–MS)

[19] = The drug is tested on Enterobacter cancerogenus strain: ATCC35316 for biotransformation. The drug concentrations were measured before and after a 12-h incubation by liquid-chromatography-coupled mass spectrometry (LC–MS); conditions: 2 µM
[20] = The drug is tested on Alistipes indistinctus strain: DSM22520 for biotransformation. The drug concentrations were measured before and after a 12-h incubation by liquid-chromatography-coupled mass spectrometry (LC–MS); conditions: 2 µM

Row | Bacterial Biotransformation [1] | Bacterial Biotransformation [2] | Bacterial Biotransformation [3] | Bacterial Biotransformation [4] | Bacterial Biotransformation [6] | Bacterial Biotransformation [7] | Bacterial Biotransformation [8] | Bacterial Biotransformation [9] | Bacterial Biotransformation [10] | Bacterial Biotransformation [11] | Bacterial Biotransformation [12] | Bacterial Biotransformation [13] | Bacterial Biotransformation [14] | Bacterial Biotransformation [15] | Bacterial Biotransformation [16] | Bacterial Biotransformation [17] | Bacterial Biotransformation [18] | Bacterial Biotransformation [19] | Bacterial Biotransformation [20] | SMILES | Bacterial Biotransformation [5]
1 | Compound NOT metabolized | – | – | – | Compound NOT metabolized | Compound NOT metabolized | Compound NOT metabolized | Compound NOT metabolized | Compound NOT metabolized | Compound metabolized | Compound NOT metabolized | Compound NOT metabolized | Compound NOT metabolized | Compound NOT metabolized | Compound metabolized | Compound metabolized | Compound NOT metabolized | – | – | C[C@]12CCC(=O)C=C1[C@@H]1C[C@@H]1[C@H]1[C@@H]3[C@@H]4C[C@@H]4[C@@]4(CCC(=O)O4)[C@@]3(C)CC[C@@H]12 [DROSPIRENONE] | –
2 | Compound NOT metabolized | Compound NOT metabolized | Compound NOT metabolized | Compound NOT metabolized | Compound NOT metabolized | Compound NOT metabolized | Compound NOT metabolized | – | Compound NOT metabolized | Compound NOT metabolized | Compound NOT metabolized | Compound NOT metabolized | Compound NOT metabolized | Compound NOT metabolized | Compound NOT metabolized | – | – | – | – | CC(CN1c2ccccc2Sc2ccccc21)N(C)C (stereo not given) [PROMETHAZINE] | –
3 | Compound NOT metabolized | Compound NOT metabolized | Compound NOT metabolized | Compound NOT metabolized | Compound NOT metabolized | Compound NOT metabolized | Compound NOT metabolized | Compound NOT metabolized | – | Compound NOT metabolized | Compound NOT metabolized | Compound NOT metabolized | Compound NOT metabolized | Compound NOT metabolized | Compound NOT metabolized | Compound NOT metabolized | Compound NOT metabolized | Compound NOT metabolized | Compound NOT metabolized | CC(N)C12CC3CC(CC(C3)C1)C2 (stereo not given) [RIMANTADINE] | Compound NOT metabolized
4 | Compound NOT metabolized | – | Compound NOT metabolized | Compound NOT metabolized | Compound NOT metabolized | Compound NOT metabolized | Compound NOT metabolized | Compound metabolized | Compound NOT metabolized | – | Compound NOT metabolized | – | Compound NOT metabolized | Compound NOT metabolized | Compound metabolized | – | – | – | – | OC(CCN1CCCCC1)(c1ccccc1)C1CCCCC1 (stereo not given) [TRIHEXYPHENIDYL] | –

Row | SMILES | Bacterial Biotransformation [1] | Bacterial Biotransformation [2] | Bacterial Biotransformation [3] | Bacterial Biotransformation [4] | Bacterial Biotransformation [6] | Bacterial Biotransformation [7] | Bacterial Biotransformation [8] | Bacterial Biotransformation [9] | Bacterial Biotransformation [10] | Bacterial Biotransformation [11] | Bacterial Biotransformation [12] | Bacterial Biotransformation [13] | Bacterial Biotransformation [14] | Bacterial Biotransformation [15] | Bacterial Biotransformation [16] | Bacterial Biotransformation [17] | Bacterial Biotransformation [18] | Bacterial Biotransformation [19] | Bacterial Biotransformation [20] | Bacterial Biotransformation [5]
5 | O=P(O)(O)O.c1ccc(CN(CC2=NCCN2)c2ccccc2)cc1 [ANTAZOLINE PHOSPHATE] | Compound NOT metabolized | Compound NOT metabolized | Compound NOT metabolized | Compound NOT metabolized | Compound NOT metabolized | Compound NOT metabolized | Compound NOT metabolized | Compound NOT metabolized | Compound NOT metabolized | Compound NOT metabolized | Compound NOT metabolized | Compound NOT metabolized | Compound NOT metabolized | Compound NOT metabolized | Compound NOT metabolized | – | – | – | – | Compound NOT metabolized
